In US10301294B2, “Compounds for the treatment of tuberculosis” (priority 2013, dated 2019):

Tested on: carbon-starved M. tuberculosis H37Rv
Test: Non-replicating IC90 determination by luciferase (carbon-starved cells)
Assay type: cell-based
Conditions: Mycobacterium tuberculosis, H37RV; non-replicating carbon-starved Mtb, luciferase; three independent experiments in triplicate; read-out: TB Growth Inhibition Activity, IC90 Non-replicating_luciferase

SMILES | IC90 [µM]
FC(F)(F)Oc1cccc(-c2nnc(SCc3ccccc3)o2)c1 | 31
CN(C)CCSc1nnc(-c2ccccc2)o1 | 16
FC(F)(F)Oc1ccccc1CSc1nnc(-c2ccccc2)o1 | 4
CS(=O)(=O)c1cccc(CSc2nnc(-c3ccccc3)o2)c1 | 250
c1ccc(-c2nnc(SCc3ncco3)o2)cc1 | 16
c1ccc(-c2nnc(SCc3cscn3)o2)cc1 | 4
Fc1ccccc1-c1nnc(SCc2ccccc2)o1 | 2
c1ccc(-c2nnc(SCc3ccccn3)o2)cc1 [drawing 142] | 3
c1ccc(Cn2cc(CSc3nnc(C4CCC4)o3)nn2)cc1 | 8
FC1(F)CN(CCSc2nnc(-c3ccccc3)o2)C1 | 1
Clc1ccc(-c2nnc(SCc3ccccc3)o2)cc1 | 4
CS(=O)(=O)c1ccccc1-c1nnc(SCc2ccccc2)o1 | 62
Fc1ccccc1CSc1nnc(-c2ccccc2)o1 | 1
Cc1cccc(CSc2nnc(-c3ccccc3)o2)c1 | 1
Fc1ccc(Cn2cc(CSc3nnc(-c4ccc(F)cc4)o3)nn2)cc1 | 4
Cc1ccccc1CSc1nnc(-c2ccccc2)o1 | 8
Fc1ccc(Cn2cc(CSc3nnc(-c4ccc(Cl)cc4)o3)nn2)cc1 | 2
FC(F)(F)c1cccc(CSc2nnc(-c3ccccc3)o2)c1 | 4
c1ccc(CSc2nnc(-c3cscn3)o2)cc1 | 4
c1ccc(Cn2cc(CSc3nnc(-c4ccccc4)o3)nn2)cc1 | 4
c1ccc(CSc2nnc(-c3ccccc3)o2)cc1 | 8
Fc1ccc(-c2nnc(SCc3cn(Cc4ccccc4)nn3)o2)cc1 | 2
c1ccc(CSc2nnc(Cc3ccccc3)o2)cc1 | 4
Fc1ccc(-c2nnc(SCc3ccccc3)o2)cc1 | 2
COc1cccc(-c2nnc(SCc3ccccc3)o2)c1 | 8
FC(F)(F)c1ccccc1-c1nnc(SCc2ccccc2)o1 | 62
c1ccc(-n2cc(CSc3nnc(C4CCCC4)o3)nn2)cc1 | 4
CN(Cc1ccccc1)c1nnc(-c2ccccc2)o1 | 0.5

Tested on: not listed separately
Test: Cytotoxicity against Hek 293
Assay type: cell-based
Conditions: human, HEK293 cells, 26.0 uM highest concentration measured

SMILES | IC50 [µM]
FC(F)(F)Oc1cccc(-c2nnc(SCc3ccccc3)o2)c1 | > 26
CN(C)CCSc1nnc(-c2ccccc2)o1 | > 26
FC(F)(F)Oc1ccccc1CSc1nnc(-c2ccccc2)o1 | > 26
CS(=O)(=O)c1cccc(CSc2nnc(-c3ccccc3)o2)c1 | > 26
c1ccc(-c2nnc(SCc3ncco3)o2)cc1 | > 26
c1ccc(-c2nnc(SCc3cscn3)o2)cc1 | > 26
Fc1ccccc1-c1nnc(SCc2ccccc2)o1 | > 26
c1ccc(-c2nnc(SCc3ccccn3)o2)cc1 [drawing 142] | > 26
c1ccc(Cn2cc(CSc3nnc(C4CCC4)o3)nn2)cc1 | > 26
FC1(F)CN(CCSc2nnc(-c3ccccc3)o2)C1 | > 26
Clc1ccc(-c2nnc(SCc3ccccc3)o2)cc1 | > 26
CS(=O)(=O)c1ccccc1-c1nnc(SCc2ccccc2)o1 | > 26
Fc1ccccc1CSc1nnc(-c2ccccc2)o1 | > 26
Cc1cccc(CSc2nnc(-c3ccccc3)o2)c1 | > 26
Fc1ccc(Cn2cc(CSc3nnc(-c4ccc(F)cc4)o3)nn2)cc1 | > 26
Cc1ccccc1CSc1nnc(-c2ccccc2)o1 | > 26
Fc1ccc(Cn2cc(CSc3nnc(-c4ccc(Cl)cc4)o3)nn2)cc1 | > 26
FC(F)(F)c1cccc(CSc2nnc(-c3ccccc3)o2)c1 | > 26
c1ccc(CSc2nnc(-c3cscn3)o2)cc1 | > 26
c1ccc(Cn2cc(CSc3nnc(-c4ccccc4)o3)nn2)cc1 | > 26
c1ccc(CSc2nnc(-c3ccccc3)o2)cc1 | > 26
Fc1ccc(-c2nnc(SCc3cn(Cc4ccccc4)nn3)o2)cc1 | > 26
c1ccc(CSc2nnc(Cc3ccccc3)o2)cc1 | > 26
Fc1ccc(-c2nnc(SCc3ccccc3)o2)cc1 | > 26
COc1cccc(-c2nnc(SCc3ccccc3)o2)c1 | > 26
FC(F)(F)c1ccccc1-c1nnc(SCc2ccccc2)o1 | > 26
c1ccc(-n2cc(CSc3nnc(C4CCCC4)o3)nn2)cc1 | > 26
CN(Cc1ccccc1)c1nnc(-c2ccccc2)o1 | > 26

Tested on: not listed separately
Test: Cytotoxicity against HepG2
Assay type: cell-based
Conditions: human, HepG2 cells, 26.0 uM highest concentration measured

SMILES | IC50 [µM]
FC(F)(F)Oc1cccc(-c2nnc(SCc3ccccc3)o2)c1 | > 26
CN(C)CCSc1nnc(-c2ccccc2)o1 | > 26
FC(F)(F)Oc1ccccc1CSc1nnc(-c2ccccc2)o1 | > 26
CS(=O)(=O)c1cccc(CSc2nnc(-c3ccccc3)o2)c1 | > 26
c1ccc(-c2nnc(SCc3ncco3)o2)cc1 | > 26
c1ccc(-c2nnc(SCc3cscn3)o2)cc1 | > 26
Fc1ccccc1-c1nnc(SCc2ccccc2)o1 | > 26
c1ccc(-c2nnc(SCc3ccccn3)o2)cc1 [drawing 142] | > 26
c1ccc(Cn2cc(CSc3nnc(C4CCC4)o3)nn2)cc1 | > 26
FC1(F)CN(CCSc2nnc(-c3ccccc3)o2)C1 | > 26
Clc1ccc(-c2nnc(SCc3ccccc3)o2)cc1 | > 26
CS(=O)(=O)c1ccccc1-c1nnc(SCc2ccccc2)o1 | > 26
Fc1ccccc1CSc1nnc(-c2ccccc2)o1 | > 26
Cc1cccc(CSc2nnc(-c3ccccc3)o2)c1 | > 26
Fc1ccc(Cn2cc(CSc3nnc(-c4ccc(F)cc4)o3)nn2)cc1 | > 26
Cc1ccccc1CSc1nnc(-c2ccccc2)o1 | > 26
Fc1ccc(Cn2cc(CSc3nnc(-c4ccc(Cl)cc4)o3)nn2)cc1 | > 26
FC(F)(F)c1cccc(CSc2nnc(-c3ccccc3)o2)c1 | > 26
c1ccc(CSc2nnc(-c3cscn3)o2)cc1 | > 26
c1ccc(Cn2cc(CSc3nnc(-c4ccccc4)o3)nn2)cc1 | > 26
c1ccc(CSc2nnc(-c3ccccc3)o2)cc1 | > 26
Fc1ccc(-c2nnc(SCc3cn(Cc4ccccc4)nn3)o2)cc1 | > 26
c1ccc(CSc2nnc(Cc3ccccc3)o2)cc1 | > 26
Fc1ccc(-c2nnc(SCc3ccccc3)o2)cc1 | > 26
COc1cccc(-c2nnc(SCc3ccccc3)o2)c1 | > 26
FC(F)(F)c1ccccc1-c1nnc(SCc2ccccc2)o1 | > 26
c1ccc(-n2cc(CSc3nnc(C4CCCC4)o3)nn2)cc1 | > 26
CN(Cc1ccccc1)c1nnc(-c2ccccc2)o1 | > 26

Tested on: replicating M. tuberculosis H37Rv
Test: microbe, parasite or virus in culture
Assay type: cell-based
Conditions: Mycobacterium tuberculosis, H37RV, three independent experiments in triplicate, read-out: TB Growth Inhibition Activity, IC90 Replicating_logarithmic (converted)

SMILES | IC90 [µM]
FC(F)(F)Oc1cccc(-c2nnc(SCc3ccccc3)o2)c1 | 250
CN(C)CCSc1nnc(-c2ccccc2)o1 | 500
FC(F)(F)Oc1ccccc1CSc1nnc(-c2ccccc2)o1 | 500
CS(=O)(=O)c1cccc(CSc2nnc(-c3ccccc3)o2)c1 | 250
c1ccc(-c2nnc(SCc3ncco3)o2)cc1 | 31
c1ccc(-c2nnc(SCc3cscn3)o2)cc1 | 62
Fc1ccccc1-c1nnc(SCc2ccccc2)o1 | 125
c1ccc(-c2nnc(SCc3ccccn3)o2)cc1 [drawing 142] | 100
c1ccc(Cn2cc(CSc3nnc(C4CCC4)o3)nn2)cc1 | > 62
FC1(F)CN(CCSc2nnc(-c3ccccc3)o2)C1 | 250
Clc1ccc(-c2nnc(SCc3ccccc3)o2)cc1 | 500
CS(=O)(=O)c1ccccc1-c1nnc(SCc2ccccc2)o1 | 500
Fc1ccccc1CSc1nnc(-c2ccccc2)o1 | 250
Cc1cccc(CSc2nnc(-c3ccccc3)o2)c1 | 125
Fc1ccc(Cn2cc(CSc3nnc(-c4ccc(F)cc4)o3)nn2)cc1 | > 62
Cc1ccccc1CSc1nnc(-c2ccccc2)o1 | 250
Fc1ccc(Cn2cc(CSc3nnc(-c4ccc(Cl)cc4)o3)nn2)cc1 | > 62
FC(F)(F)c1cccc(CSc2nnc(-c3ccccc3)o2)c1 | 250
c1ccc(CSc2nnc(-c3cscn3)o2)cc1 | 125
c1ccc(Cn2cc(CSc3nnc(-c4ccccc4)o3)nn2)cc1 | > 62
c1ccc(CSc2nnc(-c3ccccc3)o2)cc1 | 62
Fc1ccc(-c2nnc(SCc3cn(Cc4ccccc4)nn3)o2)cc1 | > 62
c1ccc(CSc2nnc(Cc3ccccc3)o2)cc1 | 500
Fc1ccc(-c2nnc(SCc3ccccc3)o2)cc1 | 125
COc1cccc(-c2nnc(SCc3ccccc3)o2)c1 | 250
FC(F)(F)c1ccccc1-c1nnc(SCc2ccccc2)o1 | 500
c1ccc(-n2cc(CSc3nnc(C4CCCC4)o3)nn2)cc1 | 62
CN(Cc1ccccc1)c1nnc(-c2ccccc2)o1 | 250

Tested on: not listed separately
Test: Cytotoxicity against HeLa
Assay type: cell-based
Conditions: human, HeLa cells, 26.0 uM highest concentration measured

SMILES | IC50 [µM]
FC(F)(F)Oc1cccc(-c2nnc(SCc3ccccc3)o2)c1 | > 26
CN(C)CCSc1nnc(-c2ccccc2)o1 | > 26
FC(F)(F)Oc1ccccc1CSc1nnc(-c2ccccc2)o1 | > 26
CS(=O)(=O)c1cccc(CSc2nnc(-c3ccccc3)o2)c1 | > 26
c1ccc(-c2nnc(SCc3ncco3)o2)cc1 | > 26
c1ccc(-c2nnc(SCc3cscn3)o2)cc1 | > 26
Fc1ccccc1-c1nnc(SCc2ccccc2)o1 | > 26
c1ccc(-c2nnc(SCc3ccccn3)o2)cc1 [drawing 142] | > 26
c1ccc(Cn2cc(CSc3nnc(C4CCC4)o3)nn2)cc1 | > 26
FC1(F)CN(CCSc2nnc(-c3ccccc3)o2)C1 | > 26
Clc1ccc(-c2nnc(SCc3ccccc3)o2)cc1 | > 26
CS(=O)(=O)c1ccccc1-c1nnc(SCc2ccccc2)o1 | > 26
Fc1ccccc1CSc1nnc(-c2ccccc2)o1 | > 26
Cc1cccc(CSc2nnc(-c3ccccc3)o2)c1 | > 26
Fc1ccc(Cn2cc(CSc3nnc(-c4ccc(F)cc4)o3)nn2)cc1 | > 26
Cc1ccccc1CSc1nnc(-c2ccccc2)o1 | > 26
Fc1ccc(Cn2cc(CSc3nnc(-c4ccc(Cl)cc4)o3)nn2)cc1 | > 26
FC(F)(F)c1cccc(CSc2nnc(-c3ccccc3)o2)c1 | > 26
c1ccc(CSc2nnc(-c3cscn3)o2)cc1 | > 26
c1ccc(Cn2cc(CSc3nnc(-c4ccccc4)o3)nn2)cc1 | > 26
c1ccc(CSc2nnc(-c3ccccc3)o2)cc1 | > 26
Fc1ccc(-c2nnc(SCc3cn(Cc4ccccc4)nn3)o2)cc1 | > 26
c1ccc(CSc2nnc(Cc3ccccc3)o2)cc1 | > 26
Fc1ccc(-c2nnc(SCc3ccccc3)o2)cc1 | > 26
COc1cccc(-c2nnc(SCc3ccccc3)o2)c1 | > 26
FC(F)(F)c1ccccc1-c1nnc(SCc2ccccc2)o1 | > 26
c1ccc(-n2cc(CSc3nnc(C4CCCC4)o3)nn2)cc1 | > 26
CN(Cc1ccccc1)c1nnc(-c2ccccc2)o1 | > 26
